Laboratory results taken from US10105357B2, “Indication of antibiotic drugs for preparation of cancer inhibition pharmaceutical composition” (LAUNX BIOMEDICAL CO., LTD., priority 2014, dated 2018).
Where a name gives a salt, the structure may show the parent alone. Read-outs that look alike come from different tables or passages of the source.

Tests used:
[1] = test system: 786-O (Renal adenocarcinoma); test: Cell viability analysis, renal cancer 786-O; assay type: cell-based, human; conditions: Homo sapiens, 786-0, 72 h, read-out: The results of antibiotic drug inhibiting cancer cell lines (cell viability analysis), 786-O
[2] = test system: A375 (Amelanotic Melanoma); test: Cell viability analysis, skin cancer A375; assay type: cell-based, human; conditions: Homo sapiens, A-375, 72 h, read-out: cell viability (survival rate), A375, drug 10 μM, 72 hours, WST-1, OD450 nm
[3] = test system: PC3 (p53−) (Prostate Adenocarcinoma); test: Cell viability analysis, prostate cancer PC3; assay type: cell-based, human; conditions: Homo sapiens, 72 h
[4] = test system: Hep3B (hepatocellular carcinoma); test: Cell viability analysis, hepatic cancer Hep3B; assay type: cell-based, human; conditions: Homo sapiens, Hep3B, 72 h, read-out: The results of antibiotic drug inhibiting cancer cell lines (cell viability analysis), Hep3B
[5] = test system: TSGH-8301 (Urinary Bladder Carcinoma); test: Cell viability analysis, bladder cancer TSGH-8301; assay type: cell-based, human; conditions: Homo sapiens, 72 h
TOV-21G = test: Cell viability analysis, ovarian cancer TOV-21G; assay type: cell-based, human; conditions: Homo sapiens, TOV21G, 72 h, read-out: The results of antibiotic drug inhibiting cancer cell lines (cell viability analysis), TOV-21G
[6] = test system: A549 (Lung Adenocarcinoma); test: Cell viability analysis, lung cancer A549; assay type: cell-based, human; conditions: Homo sapiens, A549, 72 h
BxPC-3 = test: Cell viability analysis, pancreatic cancer BxPC-3; assay type: cell-based, human; conditions: Homo sapiens, BXPC-3, 72 h, read-out: The results of antibiotic drug inhibiting cancer cell lines (cell viability analysis), BxPC-3
U-2OS = test: Cell viability analysis, osteosarcoma U-2OS; assay type: cell-based, human; conditions: Homo sapiens, U2OS, 72 h, read-out: The results of antibiotic drug inhibiting cancer cell lines (cell viability analysis), U2OS
[7] = test system: BCC (basal cell carcinoma); test: Cell viability analysis, skin cancer BCC; assay type: cell-based, human; conditions: Homo sapiens, 72 h, read-out: The results of antibiotic drug inhibiting cancer cell lines (cell viability analysis), BCC
[8] = test system: AGS (Gastric Adenocarcinoma); test: Cell viability analysis, gastric cancer AGS; assay type: cell-based, human; conditions: Homo sapiens, 72 h
T24 = test: Cell viability analysis, bladder cancer T24; assay type: cell-based, human; conditions: Homo sapiens, T-24, 72 h, read-out: The results of antibiotic drug inhibiting cancer cell lines (cell viability analysis), T24
AsPC-1 = test: Cell viability analysis, pancreatic cancer AsPC-1; assay type: cell-based, human; conditions: Homo sapiens, ASPC1, 72 h, read-out: The results of antibiotic drug inhibiting cancer cell lines (cell viability analysis), AsPC-1
[9] = test system: MKN-45 (Gastric Adenocarcinoma); test: Cell viability analysis, gastric cancer MKN-45; assay type: cell-based, human; conditions: Homo sapiens, MKN-45, 72 h
[10] = test system: LoVo (Colorectal Adenocarcinoma); test: Cell viability analysis, colon cancer LoVo; assay type: cell-based, human; conditions: Homo sapiens, LoVo, 72 h
[11] = test system: HL-60 (Acute Promyelocytic Leukemia); test: Cell viability analysis, leukemia HL-60; assay type: cell-based, human; conditions: Homo sapiens, HL-60, 72 h, read-out: cell viability (survival rate), HL-60, drug 10 μM, 72 hours, WST-1, OD450 nm
[12] = test system: HeLa (Cervix Adenocarcinoma); test: Cell viability analysis, cervical cancer HeLa; assay type: cell-based, human; conditions: Homo sapiens, HeLa, 72 h
[13] = test system: HepG2 (Hepatocellular Carcinoma); test: Cell viability analysis, hepatic cancer HepG2; assay type: cell-based, human; conditions: Homo sapiens, HepG2, 72 h
[14] = test system: HCT116 (p53+) (Colorectal Carcinoma)
[15] = test system: SAS (Tongue squamous cell carcinoma); test: Cell viability analysis, tongue cancer SAS; assay type: cell-based, human; conditions: Homo sapiens, 72 h, read-out: The results of antibiotic drug inhibiting cancer cell lines (cell viability analysis), SAS
[16] = test system: MDA-MB-231 (Mammary Gland, Adenocarcinoma); test: Cell viability analysis, breast cancer MDA-MB-231; assay type: cell-based, human; conditions: Homo sapiens, MDA-MB-231, 72 h, read-out: The results of antibiotic drug inhibiting cancer cell lines (cell viability analysis), MDA-MB231
[17] = test system: C-33A (Cervical carcinoma); test: Cell viability analysis, cervical cancer C-33A; assay type: cell-based, human; conditions: Homo sapiens, C-33-A, 72 h, read-out: The results of antibiotic drug inhibiting cancer cell lines (cell viability analysis), C-33A
cancer cell lines = test: Cell viability analysis (WST-1) on cancer cell lines; assay type: cell-based, human; conditions: drug 10 μM, 72 hours, WST-1; Table 3
[18] = test system: HI650 (Lung Adenocarcinoma); test: Cell viability analysis, lung cancer HI650; assay type: cell-based, human; conditions: Homo sapiens, NCI-H1650, 72 h
[19] = test system: MCF7 (Mammary Gland, Adenocarcinoma); test: Cell viability analysis, breast cancer MCF7; assay type: cell-based, human; conditions: Homo sapiens, MCF7, 72 h

## CN(C)CCC[C@@]1(c2ccc(F)cc2)OCc2cc(C#N)ccc21 [Escitalopram oxalate]
[1]
  viability at 10 µM: 88.8%
[2]
  viability at 10 µM: 68%
[3]; read-out: The results of antibiotic drug inhibiting cancer cell lines (cell viability analysis), PC-3, PC-3, repeated experiment
  viability at 10 µM: 120%
[3]; read-out: cell viability (survival rate), PC3, drug 10 μM, 72 hours, WST-1, OD450 nm
  viability at 10 µM: 79.5%
[4]
  viability at 10 µM: 134%
[5]; read-out: The results of antibiotic drug inhibiting cancer cell lines (cell viability analysis), TSGH-8301, TSGH-8301, repeated experiment
  viability at 10 µM: 135%
[5]; read-out: cell viability (survival rate), TSGH, drug 10 μM, 72 hours, WST-1, OD450 nm
  viability at 10 µM: 80.6%
TOV-21G
  viability at 10 µM: 117%
[6]; read-out: The results of antibiotic drug inhibiting cancer cell lines (cell viability analysis), A549, A549, repeated experiment
  viability at 10 µM: 103%
[6]; read-out: cell viability (survival rate), A549, drug 10 μM, 72 hours, WST-1, OD450 nm
  viability at 10 µM: 122%
BxPC-3
  viability at 10 µM: 68.1%
U-2OS
  viability at 10 µM: 62.2%
[7]
  viability at 10 µM: 102%
[8]; read-out: The results of antibiotic drug inhibiting cancer cell lines (cell viability analysis), AGS, repeated experiment
  viability at 10 µM: 145%
[8]; read-out: cell viability (survival rate), AGS, drug 10 μM, 72 hours, WST-1, OD450 nm
  viability at 10 µM: 62.3%
T24
  viability at 10 µM: 97.7%
AsPC-1
  viability at 10 µM: 80.3%
[9]; read-out: The results of antibiotic drug inhibiting cancer cell lines (cell viability analysis), MKN-45, MKN-45, repeated experiment
  viability at 10 µM: 127%
[9]; read-out: cell viability (survival rate), MKN-45, drug 10 μM, 72 hours, WST-1, OD450 nm
  viability at 10 µM: 116%
[10]; read-out: The results of antibiotic drug inhibiting cancer cell lines (cell viability analysis), LoVo, repeated experiment
  viability at 10 µM: 89.3%
[10]; read-out: cell viability (survival rate), LoVo, drug 10 μM, 72 hours, WST-1, OD450 nm
  viability at 10 µM: 91.6%
[11]
  viability at 10 µM: 92.7%
[12]; read-out: The results of antibiotic drug inhibiting cancer cell lines (cell viability analysis), HeLa, repeated experiment
  viability at 10 µM: 126%
[12]; read-out: cell viability (survival rate), HeLa, drug 10 μM, 72 hours, WST-1, OD450 nm
  viability at 10 µM: 95%
[13]; read-out: The results of antibiotic drug inhibiting cancer cell lines (cell viability analysis), HepG2, HepG2, repeated experiment
  viability at 10 µM: 113%
[13]; read-out: cell viability (survival rate), HepG2, drug 10 μM, 72 hours, WST-1, OD450 nm
  viability at 10 µM: 94%
[14]
  viability: 123%
[15]
  viability at 10 µM: 65.3%
[16]
  viability at 10 µM: 111%
[17]
  viability at 10 µM: 110%
Cancer cell lines
  inhibition effect on different cancer cell lines: significant inhibition effect
[18]; read-out: The results of antibiotic drug inhibiting cancer cell lines (cell viability analysis), H1650, H1650, repeated experiment
  viability at 10 µM: 92.1%
[18]; read-out: cell viability (survival rate), H1650, drug 10 μM, 72 hours, WST-1, OD450 nm
  viability at 10 µM: 80.4%
[19]; read-out: The results of antibiotic drug inhibiting cancer cell lines (cell viability analysis), MCF-7, MCF-7, repeated experiment
  viability at 10 µM: 80.1%
[19]; read-out: cell viability (survival rate), MCF7, drug 10 μM, 72 hours, WST-1, OD450 nm
  viability at 10 µM: 97.4%
